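Each compound was tested at five concentrations against cells in 96-well plates for 48 hours. Abbreviation: GI50, concentration required for 50% inhibition of growth. TGI marks complete inhibition of growth.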
How the values were obtained:
Test in all cases: NCI-60 cell line screen, 48 h
[1] = test system: NCI-H522 lung
[2] = test system: KM12 colon
[3] = test system: OVCAR-4 ovarian
[4] = test system: 786-0 renal
[5] = test system: HT29 colon
[6] = test system: HS 578T breast
[7] = test system: RXF 393 renal
[8] = test system: LOX IMVI melanoma
[9] = test system: HCT-15 colon
[10] = test system: T-47D breast

Compound	TGI [1] [µM]	TGI [2] [µM]	TGI [3] [µM]	TGI [4] [µM]	TGI [5] [µM]	TGI [6] [µM]	TGI [7] [µM]	TGI [8] [µM]	TGI [9] [µM]	GI50 [1] [µM]	GI50 [2] [µM]	GI50 [10] [µM]	TGI [10] [µM]	GI50 [4] [µM]	GI50 [5] [µM]	GI50 [6] [µM]	GI50 [7] [µM]	GI50 [9] [µM]	GI50 [3] [µM]	GI50 [8] [µM]
CCNCC(=O)O[C@]1(CC)C(=O)OCc2c1cc1n(c2=O)Cc2cc3ccccc3nc2-1	7.97	13.4	8.84	1.05	> 32.9	> 100	1.74	1.22	> 100	–	–	–	–	–	–	–	–	–	–	–
CC(C)c1ccccc1NC(=O)C(=O)Cc1nc2ccccc2s1	> 100	> 100	> 100	> 100	> 100	–	> 100	–	> 100	–	–	–	–	–	–	–	–	–	–	–
O=C(CO)CC(=O)C(=O)Nc1nc([N+](=O)[O-])cs1	> 100	> 100	> 100	> 100	> 100	–	> 100	> 100	> 100	–	–	–	–	–	–	–	–	–	–	–
Cc1cc2c(=O)n(-c3ccc(F)cc3)c(C)nc2c(C(=O)O)c1C	–	> 100	> 100	> 100	> 100	–	> 100	> 100	> 100	–	–	–	–	–	–	–	–	–	–	–
N/N=C1\C(=O)N(C2CCCCC2)C(=O)C1C(=O)NC1CCCCC1 (stereo not drawn)	> 100	> 100	> 100	> 100	> 100	–	–	> 100	> 100	–	–	–	–	–	–	–	–	–	–	–
COc1ccc(/C(=N/NC(=O)NN)C(c2ccc(OC)cc2)C2(O)CNc3c(Cl)cc(Cl)cc32)cc1 (stereo not drawn)	> 100	> 100	> 100	> 100	> 100	–	> 100	> 100	> 100	–	–	–	–	–	–	–	–	–	–	–
CC(=O)C1CC=C(C)CC1 (stereo not drawn)	> 100	> 100	> 100	> 100	> 100	–	> 100	> 100	> 100	–	–	–	–	–	–	–	–	–	–	–
Cc1cc(N(CCC#N)S(C)(=O)=O)ccc1C=O	> 100	> 100	> 100	> 100	> 100	–	> 100	> 100	> 100	–	–	–	–	–	–	–	–	–	–	–
COc1ccc(-c2ccc(/C=N/n3c(COc4ccccc4Cl)nn(CN4CCN(C)CC4)c3=S)o2)c([N+](=O)[O-])c1	> 100	31.7	–	39.3	55.9	81.4	25	–	38.3	29.5	11.9	22.1	77.1	17.4	23.5	38.7	10.4	17.4	–	–
CC1C[C@H](OC(N)=O)C(C)CC1=O (stereo partly drawn)	–	> 100	> 100	> 100	> 100	–	> 100	> 100	> 100	–	–	–	–	–	–	–	–	–	–	–
CC(=O)N1CC(Nc2ccc(OC(F)(F)F)cc2)=CC1=O	5.75	25.1	> 100	> 100	28.6	> 100	5.92	> 100	> 100	1.8	0.562	–	–	3.27	0.482	3.11	1.65	0.45	4.84	2.32
Cc1ccc(C2NC(=S)NC3=C2CCOc2c3ccc3ccccc23)cc1 (stereo not drawn)	> 100	> 100	> 100	> 100	> 100	> 100	> 100	–	> 100	> 100	8.25	35.7	> 100	> 100	8	> 100	4.83	> 100	29.4	–
COC1(OC)CC2C=C(S(=O)(=O)c3ccccc3)C1N(Cc1ccccc1)C2=O (stereo not drawn)	33.9	92.3	> 100	> 100	93.7	–	49.8	33.1	–	–	–	–	–	–	–	–	–	–	–	–
COc1cc(/C=C/c2cc(/C=C/c3ccc(O)c(OC)c3)n(-c3c(C)cccc3C)c(=O)n2)ccc1O	1.04	3.63	8.41	3.41	4.71	> 100	–	–	4.61	0.264	0.47	1.34	4.25	0.958	2.13	0.817	–	0.442	0.798	–
CCOC(=O)N1CCc2cc(OC)c(OC)c3c2C1CC3=O (stereo not drawn)	> 100	> 100	> 100	> 100	> 100	–	> 100	> 100	> 100	–	–	–	–	–	–	–	–	–	–	–
COC(=O)c1ccc2c(c1)nc(-c1cc3ccccc3[nH]c1=O)n2-c1cc(C(C)(C)C)[nH]n1	> 100	–	> 100	> 100	> 100	> 58.4	> 29.8	–	–	1.19	–	> 100	> 100	3.79	1.34	0.574	2.83	–	> 100	–
Brc1ccc(-c2nnc(-c3nn(-c4ccccc4)c4nc5ccccc5nc34)o2)cc1	> 100	> 100	> 100	> 100	> 100	–	> 100	> 100	–	–	–	–	–	–	–	–	–	–	–	–
N#CC(C(=O)/C(=N\Nc1nc(=S)[nH]n1N)C(C#N)c1ccc(Cl)cc1)c1ccc(Cl)cc1 (stereo not drawn)	–	> 100	> 100	> 100	> 100	–	> 100	> 100	> 100	–	–	–	–	–	–	–	–	–	–	–
CCn1cc(/C=C/C(C)c2cn(CC)c(=O)[nH]c2=O)c(=O)[nH]c1=O (stereo not drawn)	> 100	> 100	> 100	> 100	> 100	–	> 100	> 100	> 100	–	–	–	–	–	–	–	–	–	–	–
CCOC(=O)C(=O)Nc1ccc(C)cc1C	> 100	> 100	> 100	> 100	> 100	–	> 100	> 100	> 100	–	–	–	–	–	–	–	–	–	–	–
CN(C)c1ccc(C(=C2C=CC(=[N+](C)C)C=C2)c2ccc(N(C)C)cc2)cc1 (tested in a mixture with another compound)	1.06	0.172	1.32	1.02	> 100	1.9	0.871	–	1.41	–	0.0379	0.0389	0.655	0.104	0.0411	0.0479	0.108	0.294	0.183	–

From PubChem BioAssay (NCI)
